Target: T1, ligand binding domain of human RORγ (A262-S507) (Homo sapiens, UniProt P51449)
T1 construct: made in house; host or cells: E. coli
T1 sequence (P51449 262-507): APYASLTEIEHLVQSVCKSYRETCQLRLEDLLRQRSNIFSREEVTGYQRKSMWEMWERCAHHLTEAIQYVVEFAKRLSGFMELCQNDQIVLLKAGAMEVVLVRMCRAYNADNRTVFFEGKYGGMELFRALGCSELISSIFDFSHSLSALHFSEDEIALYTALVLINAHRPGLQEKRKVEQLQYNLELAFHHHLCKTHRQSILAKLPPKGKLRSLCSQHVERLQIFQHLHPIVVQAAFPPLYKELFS
Experiment: General RORγ SPA binding assay (competition with [3H]25-hydroxycholesterol)
Details: RORγ SPA binding assay, inhibition of [3H]25-hydroxycholesterol binding; read-out: IC50
In short: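 N-terminally His-tagged protein was expressed in E. coli and nickel-purified. Then 50 nM protein was preincubated with compound for 15 min at room temperature in PBS with 0.5% fatty acid free BSA, followed by radioligand for 15 min and copper His-tag SPA beads for 30 min. IC50 came from percent inhibition of binding.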

Row | SMILES | IC50 [nM]
1 | Cc1ncc(C(C)(O)CNc2ccnc(C(F)(F)F)n2)c(C2CCN(C(=O)Cc3c(F)cccc3F)CC2)n1 (centres unmarked) [Compound D5, 2-(2,6-difluorophenyl)-1-(4-(5-(2-hydroxy-1-((2-(trifluoromethyl)pyrimidin-4-yl)amino)propan-2-yl)-2-methylpyrimidin-4-yl)piperidin-1-yl)ethanone] | 8.4
2 | Cc1cc(C)nc(NCC(C)(O)c2cnc(C)nc2C2CCN(C(=O)Cc3c(F)cccc3F)CC2)c1 (centres unmarked) [Compound D6, 2-(2,6-difluorophenyl)-1-(4-(5-(1-((4,6-dimethylpyridin-2-yl)amino)-2-hydroxypropan-2-yl)-2-methylpyrimidin-4-yl)piperidin-1-yl)ethanone] | 23.3
3 | Cc1ncc(C(C)(O)CNc2ccnc(Cl)c2)c(C2CCN(C(=O)Cc3c(F)cccc3F)CC2)n1 (centres unmarked) [Compound D7, 1-(4-(5-(1-((2-chloropyridin-4-yl)amino)-2-hydroxypropan-2-yl)-2-methylpyrimidin-4-yl)piperidin-1-yl)-2-(2,6-difluorophenyl)ethanone] | 80
4 | Cc1ncc(C(C)(O)CNc2cc(C(F)(F)F)ccn2)c(C2CCN(C(=O)Cc3c(F)cccc3F)CC2)n1 (centres unmarked) [Compound D8, 2-(2,6-difluorophenyl)-1-(4-(5-(2-hydroxy-1-((4-(trifluoromethyl)pyridin-2-yl)amino)propan-2-yl)-2-methylpyrimidin-4-yl)piperidin-1-yl)ethanone] | 105
5 | Cc1ccnc(NCC(C)(O)c2cnc(C)nc2C2CCN(C(=O)Cc3c(F)cccc3F)CC2)c1 (centres unmarked) [Compound D9, 2-(2,6-difluorophenyl)-1-(4-(5-(2-hydroxy-1-((4-methylpyridin-2-yl)amino)propan-2-yl)-2-methylpyrimidin-4-yl)piperidin-1-yl)ethanone] | 118
6 | Cc1ncc(C(C)(O)CNc2ccn(C)n2)c(C2CCN(C(=O)Cc3c(F)cccc3F)CC2)n1 (centres unmarked) [Compound D10, 2-(2,6-difluorophenyl)-1-(4-(5-(2-hydroxy-1-((1-methyl-1H-pyrazol-3-yl)amino)propan-2-yl)-2-methylpyrimidin-4-yl)piperidin-1-yl)ethanone] | 4380
7 | Cc1cc(C)cc(OCC(C)(O)c2cnc(C)nc2C2CCN(C(=O)Cc3c(F)cccc3F)CC2)c1 (centres unmarked) [Compound D11, 2-(2,6-Difluorophenyl)-1-(4-(5-(1-(3,5-dimethylphenoxy)-2-hydroxypropan-2-yl)-2-methylpyrimidin-4-yl)piperidin-1-yl)ethanone] | 14.5
8 | Cc1ncc(C(C)(O)COc2cccc(Cl)c2)c(C2CCN(C(=O)Cc3c(F)cccc3F)CC2)n1 (centres unmarked) [Compound D12, 1-(4-(5-(1-(3-chlorophenoxy)-2-hydroxypropan-2-yl)-2-methylpyrimidin-4-yl)piperidin-1-yl)-2-(2,6-difluorophenyl)ethanone] | 6.2
9 | Cc1ncc(C(C)(O)COc2cncc(Cl)c2)c(C2CCN(C(=O)Cc3c(F)cccc3F)CC2)n1 (centres unmarked) [Compound D13, 1-(4-(5-(1-((5-chloropyridin-3-yl)oxy)-2-hydroxypropan-2-yl)-2-methylpyrimidin-4-yl)piperidin-1-yl)-2-(2,6-difluorophenyl)ethanone] | 8.9
10 | Cc1ncc(C(C)(O)COc2cccnc2)c(C2CCN(C(=O)Cc3c(F)cccc3F)CC2)n1 (centres unmarked) [Compound D14, 2-(2,6-difluorophenyl)-1-(4-(5-(2-hydroxy-1-(pyridin-3-yloxy)propan-2-yl)-2-methylpyrimidin-4-yl)piperidin-1-yl)ethanone] | 481
11 | Cc1cc(C)cc(CCC(C)(O)c2cnc(C)nc2C2CCN(C(=O)Cc3c(F)cccc3F)CC2)c1 (centres unmarked) [Compound D15, 2-(2,6-Difluorophenyl)-1-(4-(5-(4-(3,5-dimethylphenyl)-2-hydroxybutan-2-yl)-2-methylpyrimidin-4-yl)piperidin-1-yl)ethanone] | 33.9
12 | Cc1ncc(C(C)(O)CNc2cccc(C(F)(F)F)n2)c(C2CCN(C(=O)Nc3c(F)cccc3F)CC2)n1 (centres unmarked) [Compound D16, N-(2,6-Difluorophenyl)-4-[5-(1-hydroxy-1-methyl-2-{[6-(trifluoromethyl)pyridin-2-yl]amino}ethyl)-2-methylpyrimidin-4-yl]piperidine-1-carboxamide] | 12.3
13 | Cc1ncc(C(C)(O)CNc2ccnc(C(F)(F)F)n2)c(C2CCN(C(=O)Nc3c(F)cccc3F)CC2)n1 (centres unmarked) [Compound D17, N-(2,6-Difluorophenyl)-4-[5-(1-hydroxy-1-methyl-2-{[2-(trifluoromethyl)pyrimidin-4-yl]amino}ethyl)-2-methylpyrimidin-4-yl]piperidine-1-carboxamide] | 88.8
14 | Cc1ncc(C(C)(O)CNc2ccnc(C(F)(F)F)n2)c(C2CCN(C(=O)Nc3c(F)cccc3C(F)(F)F)CC2)n1 (centres unmarked) [Compound D18, N-[2-Fluoro-6-(trifluoromethyl)phenyl]-4-[5-(1-hydroxy-1-methyl-2-{[2-(trifluoromethyl)pyrimidin-4-yl]amino}ethyl)-2-methylpyrimidin-4-yl]piperidine-1-carboxamide] | 112
15 | Cc1ncc(C(C)(O)CN(C)c2ccnc(C(F)(F)F)n2)c(C2CCN(C(=O)Nc3c(F)cccc3F)CC2)n1 (centres unmarked) [Compound D19, N-(2,6-Difluorophenyl)-4-[5-(1-hydroxy-1-methyl-2-{methyl[2-(trifluoromethyl)pyrimidin-4-yl]amino}ethyl)-2-methylpyrimidin-4-yl]piperidine-1-carboxamide] | 196
16 | Cc1ncc(C(C)(O)CN(C)c2ccnc(C(F)(F)F)n2)c(C2CCN(C(=O)Cc3c(F)cccc3F)CC2)n1 (centres unmarked) [Compound D20, 2-(4-{1-[(2,6-Difluorophenyl)acetyl]piperidin-4-yl}-2-methylpyrimidin-5-yl)-1-{methyl[2-(trifluoromethyl)pyrimidin-4-yl]amino}propan-2-ol] | 72.8
17 | Cc1ncc(C(C)(O)CNc2nccc(C(F)(F)F)n2)c(C2CCN(C(=O)Nc3c(F)cccc3F)CC2)n1 (centres unmarked) [Compound D21, N-(2,6-Difluorophenyl)-4-[5-(1-hydroxy-1-methyl-2-{[4-(trifluoromethyl)pyrimidin-2-yl]amino}ethyl)-2-methylpyrimidin-4-yl]piperidine-1-carboxamide] | 47.7
18 | Cc1ncc(C(C)(O)CNc2nccc(C(F)(F)F)n2)c(C2CCN(C(=O)Nc3c(F)cccc3C(F)(F)F)CC2)n1 (centres unmarked) [Compound D22, N-[2-Fluoro-6-(trifluoromethyl)phenyl]-4-[5-(1-hydroxy-1-methyl-2-{[4-(trifluoromethyl)pyrimidin-2-yl]amino}ethyl)-2-methylpyrimidin-4-yl]piperidine-1-carboxamide] | 76.1
19 | Cc1ncc(C(C)(O)CNc2nccc(C(F)(F)F)n2)c(C2CCN(C(=O)Cc3c(F)cccc3F)CC2)n1 (centres unmarked) [Compound D23, 2-(4-{1-[(2,6-Difluorophenyl)acetyl]piperidin-4-yl}-2-methylpyrimidin-5-yl)-1-{[4-(trifluoromethyl)pyrimidin-2-yl]amino}propan-2-ol] | 18.5
20 | Cc1ncc(C(C)(O)COc2cccc(C(F)(F)F)n2)c(C2CCN(C(=O)Cc3c(F)cccc3F)CC2)n1 (centres unmarked) [Compound D24, 2-(4-{1-[(2,6-difluorophenyl)acetyl]piperidin-4-yl}-2-methylpyrimidin-5-yl)-1-{[6-(trifluoromethyl)pyridin-2-yl]oxy}propan-2-ol] | 5
21 | Cc1ncc(C(C)(O)COc2cccc(C(F)(F)F)n2)c(C2CCN(C(=O)Nc3c(F)cccc3F)CC2)n1 (centres unmarked) [Compound D25, N-(2,6-difluorophenyl)-4-[5-(1-hydroxy-1-methyl-2-{[6-(trifluoromethyl)pyridin-2-yl]oxy}ethyl)-2-methylpyrimidin-4-yl]piperidine-1-carboxamide] | 8.7
22 | CSc1ncc(C(C)(O)COc2cccc(C(F)(F)F)n2)c(C2CCN(C(=O)Nc3c(F)cccc3F)CC2)n1 (centres unmarked) [Compound D26, N-(2,6-Difluorophenyl)-4-[5-(1-hydroxy-1-methyl-2-{[6-(trifluoromethyl)pyridin-2-yl]oxy}ethyl)-2-(methylthio)pyrimidin-4-yl]piperidine-1-carboxamide] | 12.6
23 | CC(O)(COc1cccc(C(F)(F)F)n1)c1cnc(N)nc1C1CCN(C(=O)Nc2c(F)cccc2F)CC1 (centres unmarked) [Compound D27, 4-[2-Amino-5-(1-hydroxy-1-methyl-2-{[6-(trifluoromethyl)pyridin-2-yl]oxy}ethyl)pyrimidin-4-yl]-N-(2,6-difluorophenyl)piperidine-1-carboxamide] | 3.6
24 | CSc1ncc(C(C)(O)COc2ccnc(C(F)(F)F)n2)c(C2CCN(C(=O)Nc3c(F)cccc3F)CC2)n1 (centres unmarked) [Compound D28, N-(2,6-Difluorophenyl)-4-[5-(1-hydroxy-1-methyl-2-{[2-(trifluoromethyl)pyrimidin-4-yl]oxy}ethyl)-2-(methylthio)pyrimidin-4-yl]piperidine-1-carboxamide] | 14.7
25 | CC(O)(COc1ccnc(C(F)(F)F)n1)c1cnc(N)nc1C1CCN(C(=O)Nc2c(F)cccc2F)CC1 (centres unmarked) [Compound D29, 4-[2-Amino-5-(1-hydroxy-1-methyl-2-{[2-(trifluoromethyl)pyrimidin-4-yl]oxy}ethyl)pyrimidin-4-yl]-N-(2,6-difluorophenyl)piperidine-1-carboxamide] | 14.4
26 | CC(O)(COc1ccnc(C(F)(F)F)n1)c1cnc(N)nc1C1CCN(C(=O)Cc2c(F)cccc2F)CC1 (centres unmarked) [Compound D30, 2-(2-Amino-4-{1-[(2,6-difluorophenyl)acetyl]piperidin-4-yl}pyrimidin-5-yl)-1-{[2-(trifluoromethyl)pyrimidin-4-yl]oxy}propan-2-ol] | 4.3

Reference: patent US10035790B2, “RORγ modulators” (BRISTOL-MYERS SQUIBB COMPANY, priority 2012, dated 2018)
